Read-outs that look alike come from different tables or passages of the source.
Legend:
C57BL6/J DIO mice [1] = test: Body weight of diet-induced obese mice under daily compound administration; type: in vivo, mouse
Protocol: FIG. 9. Loss of weight in Vandetanib administered mice. C57BL6/J DIO mice were administered 40/mg/kg/day by oral gavage. The mice were weighed daily and the values were expressed as a percentage of the starting weight (day 1). […] Error bars represent standard error of the mean.
FIG. 13. Loss of weight in dasatininb administered mice. C57BL6/J DIO mice were administered 5/mg/kg/day for 27 days. The mice were weighed daily and the values were expressed as a percentage of the starting weight (day 1). […] Error bars represent standard error of the mean.
General preferred layout: The mice were divided into cages of 2-4 mice per cage and allowed to acclimatise to the new housing conditions for at least 2 weeks. The mice were weighed every week to monitor their weight and ensure that the mice are either gaining weight or stabilized prior to initiation of the experiment. Mice were randomly assigned to weight-matched groups for compound administration. Compound dosage and routes of administration were determined based on published literature and pharmacokinetic studies. […]
The dose of Vandetanib chosen for this study was 40 mg/kg/d. This has been determined to be an effective dose for the inhibition of the target VEGFR in various mouse cancer models. […] The mice were weighed on a daily basis during the experiment and monitored for overt signs of toxicity or stress. […]

C57BL6/J DIO mice [2] = system: C57BL6/J DIO mice
hedgehog pathway = type: cell-based
[3] = human, in vivo, po; cited from earlier work
[4] = administered orally; cited from earlier work
[5] = cited from earlier work
[6] = system: human Adenoid Cycstic Carcinoma; conditions: 50 mg/kg/d oral gavage for 4 weeks; cited from earlier work
renal cell carcinoma = conditions: 50 mg/kg for 21 days; cited from earlier work
tumour growth = conditions: up to 100 mg/kg in mice for 35 days; cited from earlier work

## Cc1nc(Nc2ncc(C(=O)Nc3c(C)cccc3Cl)s2)cc(N2CCN(CCO)CC2)n1 [Dasatinib]
C57BL6/J DIO mice [1]; 5 mg/kg/day intraperitoneally, by day 28
  average loss of starting weight: 20%
C57BL6/J DIO mice [2]; mouse, in vivo, ip, 5 mg/kg/day
  tolerability / adverse side effects: well tolerated during the course of the study and no adverse side effects were observed

## CNC1CCC(N(Cc2cccc(-c3ccncc3)c2)C(=O)c2sc3ccccc3c2Cl)CC1 (stereo not drawn) [SAG]
Hedgehog pathway
  hedgehog pathway activation (target genes Gli1 and Ptch1): activation

## CNC(=O)c1cc(Oc2ccc(NC(=O)Nc3ccc(Cl)c(C(F)(F)F)c3)cc2)ccn1 [Sorafenib]
[3]
  maximum tolerated dose in humans: 400 mg
[4]
  half life: 25 to 48 h

## C=CCNC1=C2C[C@@H](C)C[C@H](OC)[C@H](O)[C@@H](C)/C=C(\C)[C@H](OC(N)=O)[C@@H](OC)/C=C\C=C(/C)C(=O)NC(=CC1=O)C2=O [Tanespimycin, 17-allylamino-demethoxygeldamycin]
[5]
  water solubility: water insoluble

## COc1cc2c(Nc3ccc(Br)cc3F)ncnc2cc1OCC1CCN(C)CC1 [Vandetanib]
[6]
  tolerability: well tolerated by the mice and no adverse side effects or loss in body weight was observed
Renal cell carcinoma
  tolerability: well tolerated with no drug related changes in weight or behaviour observed
C57BL6/J DIO mice [1]; 40 mg/kg/d oral gavage, stabilized over the course of the experiment
  reduction of body weight: ~10%
[3]
  maximum tolerated dose in humans: 300 mg
C57BL6/J DIO mice [2]; DIO mice, 40 mg/kg/d oral gavage, course of the study
  tolerability / adverse side effects: well tolerated during the course of the study and no adverse side effects were observed
Tumour growth
  effect on clinical condition: no obvious effect on clinical condition

Source: patent US20130030007A1, “Obesity Small Molecules” (AKRON MOLECULES GMBH, priority 2010, published 2013)
